Numbered stars: 1 amine (or outer) side, 2 acyl side, 3 side chain; on linkers, the order of the positions; unused ones are H or OH. Bridge positions count the residues as written; N and C are the ends. Square brackets hold non-standard residues; d marks the D form. Peptide text beside a SMILES is read from it. * marks the point of attachment. Bip(4'-COOH) = N[C@@H](Cc1ccc(-c2ccc(C(=O)O)cc2)cc1)C(=O)O; Bip(4'-NHAc) = CC(=O)Nc1ccc(-c2ccc(C[C@H](N)C(=O)O)cc2)cc1; Phe(3-CH2NH2) = O=C([C@H](Cc1cccc(CN[*:3])c1)N[*:1])[*:2]; X24 = COc1ccccc1-c1cn(C[C@H](N[*:1])C(=O)[*:2])nn1; Phe(3-CF3) = N[C@@H](Cc1cccc(C(F)(F)F)c1)C(=O)O; Ala(morpholin-4-yl) = N[C@@H](CN1CCOCC1)C(=O)O; Phe(4-COOH) = N[C@@H](Cc1ccc(C(=O)O)cc1)C(=O)O; Bip = N[C@@H](Cc1ccc(-c2ccccc2)cc1)C(=O)O; Phe(3-NH2) = Nc1cccc(C[C@H](N)C(=O)O)c1; Phe(4-NH2) = Nc1ccc(C[C@H](N)C(=O)O)cc1; Phe(3-Me) = Cc1cccc(C[C@H](N)C(=O)O)c1; Ala(cPr) = N[C@@H](CC1CC1)C(=O)O; hCha = N[C@@H](CCC1CCCCC1)C(=O)O; 2Pal = N[C@@H](Cc1ccccn1)C(=O)O; Cha = N[C@@H](CC1CCCCC1)C(=O)O; Carboxymethyl = O=C(O)C*; NMeA = CN[C@@H](C)C(=O)O; Orn = NCCC[C@H](N)C(=O)O; Dab = NCC[C@H](N)C(=O)O
Target: T1, Alexa fluor-647 labeled human PD-L1-Ig binding to Jurkat cell line over-expressing human PD-1 (Homo sapiens, UniProt Q15116)
T1 construct: expressed in transfected cells; host or cells: Jurkat
T1 sequence (Q15116 25-288): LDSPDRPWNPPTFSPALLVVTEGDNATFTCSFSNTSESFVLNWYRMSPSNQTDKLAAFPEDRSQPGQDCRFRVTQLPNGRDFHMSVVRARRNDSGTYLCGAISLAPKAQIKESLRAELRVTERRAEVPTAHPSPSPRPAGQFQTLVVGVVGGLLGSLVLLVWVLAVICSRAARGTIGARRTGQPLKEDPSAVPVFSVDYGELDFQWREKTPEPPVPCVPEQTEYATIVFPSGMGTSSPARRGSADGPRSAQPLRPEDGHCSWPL
Assay: Jurkat-PD-1 Cell Binding High-Content Screening Assay (CBA): Method 3 (Alexa fluor-647 labeled PD-L1-Ig)
Details: Jurkat-PD-1 cells, Alexa fluor-647 labeled PD-L1-Ig 177 nM; head μM; read-out: CBA Method 3 μM
Outline: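 Jurkat cells over-expressing human PD-1 in RPMI/10% FCS were preincubated 2 h at 37 °C with compound, then exposed 1 h to Alexa fluor-647 labeled human PD-L1-Ig (177 nM final). Cells fixed in 4% paraformaldehyde with Hoechst 33342 and binding quantified by high-content imaging.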

Row | SMILES | IC50 [µM]
1 | Cc1cccc(C[C@@H]2NC(=O)[C@H](CC(=O)O)NC(=O)[C@H](Cc3ccc(OCC(=O)O)cc3)NC(=O)[C@H](CC3CCCCC3)NC(=O)CSC[C@@H](C(=O)N[C@@H](CCN)C(N)=O)NC(=O)[C@H](CCCN)NC(=O)[C@H](C(C)C)NC(=O)[C@H](Cc3cccc(CN)c3)NC(=O)[C@H](CCN)NC(=O)[C@@H](CC(C)C)NC(=O)[C@H](C)N(C)C(=O)[C@H](CCC(N)=O)NC(=O)[C@H](Cc3ccc(-c4ccccc4)cc3)NC(=O)[C@H](Cc3ccc(C(=O)O)cc3)NC2=O)c1 [Example 5188] ({CH2CO}-[Cha]Y(Carboxymethyl)D[Phe(3-Me)][Phe(4-COOH)][Bip]Q[NMeA][dL][Dab][Phe(3-CH2NH2)]V[Orn]C[Dab]-NH2; thioether N-14) | 0.05
2 | Cc1cccc(C[C@@H]2NC(=O)[C@H](CC(=O)O)NC(=O)[C@H](Cc3ccc(OCC(=O)O)cc3)NC(=O)[C@H](CC3CCCCC3)NC(=O)CSC[C@@H](C(=O)N[C@@H](CCN)C(N)=O)NC(=O)[C@H](CCCN)NC(=O)[C@H](C(C)C)NC(=O)[C@H](Cc3ccc(N)cc3)NC(=O)[C@H](CCN)NC(=O)[C@@H](CC(C)C)NC(=O)[C@H](C)N(C)C(=O)[C@H](CCC(N)=O)NC(=O)[C@H](Cc3ccc(-c4ccccc4)cc3)NC(=O)[C@H](Cc3ccc(C(=O)O)cc3)NC2=O)c1 [Example 5189] ({CH2CO}-[Cha]Y(Carboxymethyl)D[Phe(3-Me)][Phe(4-COOH)][Bip]Q[NMeA][dL][Dab][Phe(4-NH2)]V[Orn]C[Dab]-NH2; thioether N-14) | 0.33
3 | Cc1cccc(C[C@@H]2NC(=O)[C@H](CC(=O)O)NC(=O)[C@H](Cc3ccc(OCC(=O)O)cc3)NC(=O)[C@H](CC3CCCCC3)NC(=O)CSC[C@@H](C(=O)N[C@@H](CCN)C(N)=O)NC(=O)[C@H](CCCN)NC(=O)[C@H](C(C)C)NC(=O)[C@H](Cc3cccc(N)c3)NC(=O)[C@H](CCN)NC(=O)[C@@H](CC(C)C)NC(=O)[C@H](C)N(C)C(=O)[C@H](CCC(N)=O)NC(=O)[C@H](Cc3ccc(-c4ccccc4)cc3)NC(=O)[C@H](Cc3ccc(C(=O)O)cc3)NC2=O)c1 [Example 5190] ({CH2CO}-[Cha]Y(Carboxymethyl)D[Phe(3-Me)][Phe(4-COOH)][Bip]Q[NMeA][dL][Dab][Phe(3-NH2)]V[Orn]C[Dab]-NH2; thioether N-14) | 0.02
4 | Cc1cccc(C[C@@H]2NC(=O)[C@H](CC(=O)O)NC(=O)[C@H](Cc3ccc(OCC(=O)O)cc3)NC(=O)[C@H](CC3CCCCC3)NC(=O)CSC[C@@H](C(=O)N[C@@H](CCN)C(N)=O)NC(=O)[C@H](CCCN)NC(=O)[C@H](C(C)C)NC(=O)[C@H](CN3CCOCC3)NC(=O)[C@H](CCN)NC(=O)[C@@H](CC(C)C)NC(=O)[C@H](C)N(C)C(=O)[C@H](CCC(N)=O)NC(=O)[C@H](Cc3ccc(-c4ccccc4)cc3)NC(=O)[C@H](Cc3ccc(C(=O)O)cc3)NC2=O)c1 [Example 5191] ({CH2CO}-[Cha]Y(Carboxymethyl)D[Phe(3-Me)][Phe(4-COOH)][Bip]Q[NMeA][dL][Dab][Ala(morpholin-4-yl)]V[Orn]C[Dab]-NH2; thioether N-14) | 0.12
5 | Cc1cccc(C[C@@H]2NC(=O)[C@H](CC(=O)O)NC(=O)[C@H](Cc3ccc(OCC(=O)O)cc3)NC(=O)[C@H](CC3CCCCC3)NC(=O)CSC[C@@H](C(=O)N[C@@H](CCN)C(N)=O)NC(=O)[C@H](CCCN)NC(=O)[C@H](C(C)C)NC(=O)[C@H](CC3CC3)NC(=O)[C@H](CCN)NC(=O)[C@@H](CC(C)C)NC(=O)[C@H](C)N(C)C(=O)[C@H](CCC(N)=O)NC(=O)[C@H](Cc3ccc(-c4ccccc4)cc3)NC(=O)[C@H](Cc3ccc(C(=O)O)cc3)NC2=O)c1 [Example 5192] ({CH2CO}-[Cha]Y(Carboxymethyl)D[Phe(3-Me)][Phe(4-COOH)][Bip]Q[NMeA][dL][Dab][Ala(cPr)]V[Orn]C[Dab]-NH2; thioether N-14) | 0.15
6 | Cc1cccc(C[C@@H]2NC(=O)[C@H](CC(=O)O)NC(=O)[C@H](Cc3ccc(OCC(=O)O)cc3)NC(=O)[C@H](CC3CCCCC3)NC(=O)CSC[C@@H](C(=O)N[C@@H](CCN)C(N)=O)NC(=O)[C@H](CCCN)NC(=O)[C@H](C(C)C)NC(=O)[C@H](CCC3CCCCC3)NC(=O)[C@H](CCN)NC(=O)[C@@H](CC(C)C)NC(=O)[C@H](C)N(C)C(=O)[C@H](CCC(N)=O)NC(=O)[C@H](Cc3ccc(-c4ccccc4)cc3)NC(=O)[C@H](Cc3ccc(C(=O)O)cc3)NC2=O)c1 [Example 5193] ({CH2CO}-[Cha]Y(Carboxymethyl)D[Phe(3-Me)][Phe(4-COOH)][Bip]Q[NMeA][dL][Dab][hCha]V[Orn]C[Dab]-NH2; thioether N-14) | 0.38
7 | Cc1cccc(C[C@@H]2NC(=O)[C@H](CC(=O)O)NC(=O)[C@H](Cc3ccc(OCC(=O)O)cc3)NC(=O)[C@H](CC3CCCCC3)NC(=O)CSC[C@@H](C(=O)N[C@@H](CCN)C(N)=O)NC(=O)[C@H](CCCN)NC(=O)[C@H](C(C)C)NC(=O)[C@H](Cc3ccccn3)NC(=O)[C@H](CCN)NC(=O)[C@@H](CC(C)C)NC(=O)[C@H](C)N(C)C(=O)[C@H](CCC(N)=O)NC(=O)[C@H](Cc3ccc(-c4ccccc4)cc3)NC(=O)[C@H](Cc3ccc(C(=O)O)cc3)NC2=O)c1 [Example 5194] ({CH2CO}-[Cha]Y(Carboxymethyl)D[Phe(3-Me)][Phe(4-COOH)][Bip]Q[NMeA][dL][Dab][2Pal]V[Orn]C[Dab]-NH2; thioether N-14) | 0.04
8 | COc1ccccc1-c1cn(C[C@@H]2NC(=O)[C@H](Cc3ccc(C(=O)O)cc3)NC(=O)[C@H](Cc3cccc(C(F)(F)F)c3)NC(=O)[C@H](CC(=O)O)NC(=O)[C@H](Cc3ccc(C(=O)O)cc3)NC(=O)[C@H](CN3CCOCC3)NC(=O)CSC[C@@H](C(=O)N[C@@H](CCN)C(N)=O)NC(=O)[C@H](CCC(=O)O)NC(=O)[C@H](C(C)C)NC(=O)[C@H](CC3CCCCC3)NC(=O)[C@H](CCN)NC(=O)[C@@H](CC(C)C)NC(=O)[C@H](C)N(C)C(=O)[C@H](Cc3ccc(C(=O)O)cc3)NC2=O)nn1 [Example 5197] ({CH2CO}-[Ala(morpholin-4-yl)][Phe(4-COOH)]D[Phe(3-CF3)][Phe(4-COOH)][X24][Phe(4-COOH)][NMeA][dL][Dab][Cha]VEC[Dab]-NH2; thioether N-14) | 0.45

Further lines, results first:

Row | IC50 [µM] | SMILES
9 | 0.01 | Cc1cccc(C[C@@H]2NC(=O)[C@H](CC(=O)O)NC(=O)[C@H](Cc3ccc(C(=O)O)cc3)NC(=O)[C@H](CC3CCCCC3)NC(=O)CSC[C@@H](C(=O)N[C@@H](CCN)C(N)=O)NC(=O)[C@H](CCC(=O)O)NC(=O)[C@H](C(C)C)NC(=O)[C@H](CC3CCCCC3)NC(=O)[C@H](CCN)NC(=O)[C@@H](CC(C)C)NC(=O)[C@H](C)N(C)C(=O)[C@H](Cc3ccc(C(=O)O)cc3)NC(=O)[C@H](Cc3ccc(-c4ccccc4)cc3)NC(=O)[C@H](Cc3ccc(-c4ccc(C(=O)O)cc4)cc3)NC2=O)c1 [Example 5198] ({CH2CO}-[Cha][Phe(4-COOH)]D[Phe(3-Me)][Bip(4'-COOH)][Bip][Phe(4-COOH)][NMeA][dL][Dab][Cha]VEC[Dab]-NH2; thioether N-14)
10 | 0.01 | CC(=O)Nc1ccc(-c2ccc(C[C@@H]3NC(=O)[C@H](Cc4cccc(C)c4)NC(=O)[C@H](CC(=O)O)NC(=O)[C@H](Cc4ccc(C(=O)O)cc4)NC(=O)[C@H](CC4CCCCC4)NC(=O)CSC[C@@H](C(=O)N[C@@H](CCN)C(N)=O)NC(=O)[C@H](CCC(=O)O)NC(=O)[C@H](C(C)C)NC(=O)[C@H](CC4CCCCC4)NC(=O)[C@H](CCN)NC(=O)[C@@H](CC(C)C)NC(=O)[C@H](C)N(C)C(=O)[C@H](Cc4ccc(C(=O)O)cc4)NC(=O)[C@H](Cc4ccc(-c5ccccc5)cc4)NC3=O)cc2)cc1 [Example 5199] ({CH2CO}-[Cha][Phe(4-COOH)]D[Phe(3-Me)][Bip(4'-NHAc)][Bip][Phe(4-COOH)][NMeA][dL][Dab][Cha]VEC[Dab]-NH2; thioether N-14)
11 | 0.02 | CC(=O)Nc1ccc(-c2ccc(C[C@@H]3NC(=O)[C@H](Cc4cccc(C)c4)NC(=O)[C@H](CC(=O)O)NC(=O)[C@H](Cc4ccc(C(=O)O)cc4)NC(=O)[C@H](CC4CCCCC4)NC(=O)CSC[C@@H](C(=O)N[C@@H](CCN)C(N)=O)NC(=O)[C@H](CCC(N)=O)NC(=O)[C@H](C(C)C)NC(=O)[C@H](CC4CCCCC4)NC(=O)[C@H](CCN)NC(=O)[C@@H](CC(C)C)NC(=O)[C@H](C)N(C)C(=O)[C@H](Cc4ccc(C(=O)O)cc4)NC(=O)[C@H](Cc4ccc(-c5ccccc5)cc4)NC3=O)cc2)cc1 [Example 5200] ({CH2CO}-[Cha][Phe(4-COOH)]D[Phe(3-Me)][Bip(4'-NHAc)][Bip][Phe(4-COOH)][NMeA][dL][Dab][Cha]VQC[Dab]-NH2; thioether N-14)

Same assay, conditions: Jurkat-PD-1 cells, Alexa fluor-647 labeled PD-L1-Ig 177 nM; nM; read-out: CBA Method 3

Row | IC50 [µM] | SMILES
12 | 0.0017 | CC(C)C[C@H]1NC(=O)[C@H](C)N(C)C(=O)[C@H](Cc2ccc(C(=O)O)cc2)NC(=O)[C@H](Cc2ccc(-c3ccccc3)cc2)NC(=O)[C@H](Cc2ccc(C(=O)O)cc2)NC(=O)[C@H](Cc2cccc(C(F)(F)F)c2)NC(=O)[C@H](CC(=O)O)NC(=O)[C@H](Cc2ccc(C(=O)O)cc2)NC(=O)[C@H](CC2CCCCC2)NC(=O)CSC[C@@H](C(=O)N[C@@H](CCN)C(N)=O)NC(=O)[C@H](CCC(=O)O)NC(=O)[C@H](C(C)C)NC(=O)[C@H](CC2CCCCC2)NC(=O)[C@H](CCN)NC1=O [Example 5195] ({CH2CO}-[Cha][Phe(4-COOH)]D[Phe(3-CF3)][Phe(4-COOH)][Bip][Phe(4-COOH)][NMeA][dL][Dab][Cha]VEC[Dab]-NH2; thioether N-14)
13 | 0.0072 | Cc1cccc(C[C@@H]2NC(=O)[C@H](CC(=O)O)NC(=O)[C@H](Cc3ccc(C(=O)O)cc3)NC(=O)[C@H](CC3CCCCC3)NC(=O)CSC[C@@H](C(=O)N[C@@H](CCN)C(N)=O)NC(=O)[C@H](CCC(=O)O)NC(=O)[C@H](C(C)C)NC(=O)[C@H](CC3CCCCC3)NC(=O)[C@H](CCN)NC(=O)[C@@H](CC(C)C)NC(=O)[C@H](C)N(C)C(=O)[C@H](Cc3ccc(C(=O)O)cc3)NC(=O)[C@H](Cc3ccc(-c4ccccc4)cc3)NC(=O)[C@H](Cc3ccc(C(=O)O)cc3)NC2=O)c1 [Example 5196] ({CH2CO}-[Cha][Phe(4-COOH)]D[Phe(3-Me)][Phe(4-COOH)][Bip][Phe(4-COOH)][NMeA][dL][Dab][Cha]VEC[Dab]-NH2; thioether N-14)

Reference: patent US20240409585A1, “MACROCYCLIC IMMUNOMODULATORS” (priority 2021, published 2024)
